Measured values: ChEMBL document CHEMBL3739325, “Design of pyrazolo-pyrimidines as 11-HSD1 inhibitors through optimisation of molecular electrostatic potential” (Medchemcomm, 2015)

Assays:
[1] = Lipophilicity, log D of the compound in octanol at pH 7.4; format: physicochemical
[2] = test system: human transporter (not named); assay: Apparent permeability of the compound in MDCK cells expressing human transporter […]; format: ADME, cell-based, Canis lupus familiaris; details: dog
[3] = Ratio of total drug uptake in brain to blood in Han Wistar rat after 1 hr; format: ADME, tissue-based; details: brain and blood, read-out: BBR

logD [1]	Papp [2] [×10⁻⁶ cm/s]	Kp at 1 h [3]	Structure (SMILES)
0.6			N#Cc1cnc2c(C(=O)N[C@H]3C4CC5CC3C[C@](O)(C5)C4)cnn2c1
2.3			Cc1cc(C(F)(F)F)n2ncc(C(=O)N[C@H]3C4CC5CC3C[C@](O)(C5)C4)c2n1
2.8			O=C(N[C@H]1C2CC3CC1C[C@](O)(C3)C2)c1cnn2c(C(F)F)cc(C3CC3)nc12
2.9			Cc1cc(C)n2ncc(C(=O)N[C@H]3C4CC5CC3C[C@](C#N)(C5)C4)c2n1
2.6	49		CO[C@]12CC3CC(C1)[C@@H](NC(=O)c1cnn4cc(C)cnc14)C(C3)C2
1.4			O=C(N[C@H]1C2CC3CC1C[C@](O)(C3)C2)c1cnn2cccnc12
1.2			O=C(N[C@H]1C2CC3CC1C[C@](O)(C3)C2)c1cnc2cccnn12
3.5			O=C(NC1C2CC3CC(C2)CC1C3)c1cnn2cccnc12 (stereo not given)
1.8			COc1cnc2c(C(=O)N[C@H]3C4CC5CC3C[C@](O)(C5)C4)cnn2c1
2		0.3	Cc1ccnc2c(C(=O)N[C@H]3C4CC5CC3C[C@](O)(C5)C4)cnn12
1.8	44	0.3	O=C(N[C@H]1C2CC3CC1C[C@](O)(C3)C2)c1cnn2cc(Cl)cnc12
1.8			COCc1cc(C)n2ncc(C(=O)N[C@H]3C4CC5CC3C[C@](O)(C5)C4)c2n1
2.3	46	1.6	Cc1cnc2c(C(=O)N[C@H]3C4CC5CC3C[C@](C#N)(C5)C4)cnn2c1
2.5	41	0.6	N#C[C@]12CC3CC(C1)[C@@H](NC(=O)c1cnn4cc(Cl)cnc14)C(C3)C2
1.9			Cc1ccn2ncc(C(=O)N[C@H]3C4CC5CC3C[C@](O)(C5)C4)c2n1
2			O=C(N[C@H]1C2CC3CC1C[C@](O)(C3)C2)c1cnn2c(C(F)(F)F)ccnc12
2.2			Cc1cc(C(F)F)n2ncc(C(=O)N[C@H]3C4CC5CC3C[C@](O)(C5)C4)c2n1
2.1			COCc1cc(C)nc2c(C(=O)N[C@H]3C4CC5CC3C[C@](O)(C5)C4)cnn12
2.4			COCc1cc(C)n2ncc(C(=O)N[C@H]3C4CC5CC3C[C@](C#N)(C5)C4)c2n1
1.7	29	0.3	Cc1cnc2c(C(=O)N[C@H]3C4CC5CC3C[C@](O)(C5)C4)cnn2c1
2.4			Cc1ccnc2c(C(=O)N[C@H]3C4CC5CC3C[C@](C#N)(C5)C4)cnn12
2			Cc1cc(C)n2ncc(C(=O)N[C@H]3C4CC5CC3C[C@](O)(C5)C4)c2n1
1.5			O=C(N[C@H]1C2CC3CC1C[C@](O)(C3)C2)c1cnn2ccccc12
1.6			N#C[C@]12CC3CC(C1)[C@@H](NC(=O)c1cnn4cc(CCO)cnc14)C(C3)C2
2.7			COCc1cc(C)nc2c(C(=O)N[C@H]3C4CC5CC3C[C@](C#N)(C5)C4)cnn12
